# Values quoted from earlier work as cited in patent US20110257197A1 (Nanjing Cavendish Bio-Engineering Technology Co., Ltd., priority 2008, published 2011).
# “Also recorded” adds a separate entry of the source. Read-outs that look alike come from different tables or passages of the source.
# Legend:
# rodent = details: two-year studies
# rat = details: i.v.
# red blood cell = details: i.v.
# mice [1] = system: mice
# guinea pig = details: indicates possibility of causing allergy
# mice [2] = details: i.v.
# [3] = in vivo
# [4] = system: Scedosporium and Fusarium species; details: in vitro
# [5] = system: Candida species (including strains of Candida krusei, Candida glabrata, and Candida albicans resistant to fluconazole); details: in vitro
# Aspergillus fungi = details: in vitro
# mice [6] = system: mice; remark: listed apart in the source
# [7] = in vivo; remark: listed apart in the source
# [8] = listed as sulfobutyl ether β-cyclodextrin sodium
molecule,measurement,setting,value
sulfobutyl ether β-cyclodextrin sodium [SBECD],carcinogenicity (pancreatic carcinoma),rodent,carcinogenic
same,LD50,rat,LD50 > 2000 mg/kg
same,concentration of significant heamolysis,red blood cell,at 0.04 mg/ml.
same,concentration at which mild hemolysis occurs,red blood cell; [8],20000 ng/mL
same,concentration of significant heamolysis,red blood cell; [8],40000 ng/mL
same,dose at which the weight of mice was significantly decreased,mice [1],18 mg/kg/day or higher
same,guinea pig maximization test (GPMT) result,guinea pig,positive
same,LD50,mice [2],LD50 > 2000 mg/kg
same,findings on repeated administration,[3],vacuale formation in the urinary-tract epithelium; also recorded: activated macrophages in liver and lung
C[C@@H](c1ncncc1F)[C@](O)(Cn1cncn1)c1ccc(F)cc1F [voriconazole],activity against other pathogenic fungi such as Scedosporium and Fusarium species,[4],in vitro activity
same,activity against Candida species,[5],active
same,solubility in water,pH 3,200 µg/mL
same,solubility in water,pH 7,almost insoluble
same,activity against all tested Aspergillus fungi,Aspergillus fungi,active
CCO [ethanol],LD50,rat,"ethanol, in rat, i.v. LD50 = 1973 mg/kg;"
same,LD50,mice [2],1440 mg/kg
CC(O)CO (stereo not shown) [propylene glycol],LD50,rat,i.v. LD50 ≧ 5000 mg/kg.
same,NOAEL of maternal toxicity in teratogenic sensitive period,mice [6],1600 mg/kg/day. Ethanol could cause
same,NOAEL of teratogenic toxicity,mice [6],1600 mg/kg/day. Ethanol could cause
same,NOAEL of maternal toxicity in teratogenic sensitive period,rats,1600 mg/kg/day. Ethanol could cause
same,NOAEL of teratogenic toxicity,rats,1600 mg/kg/day. Ethanol could cause
same,long term fertility study,[7],studies showed that no abnormity had
